Laboratory results from patent publication US20230139445A1, “BACTERIAL CELLS WITH IMPROVED TOLERANCE TO DIACIDS” (priority 2016, published 2023).
Where two headings read alike, the source gives them in different places.

What was measured:
[1] = tested on: Escherichia coli K-12 MG1655 and evolved isolates; type: cell-based; details: 45 g/L itaconic acid
Summary of the method: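 Wild-type MG1655 and evolved isolates, precultured overnight in M9 + 1% glucose at 37 °C, were diluted into M9 + 1% glucose. Growth at 37 °C, 225 rpm, scanned every 15 min; pixel values calibrated to OD600. Diacids tested as sodium salts or neutralized to pH 7.0.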

[2] = tested on: Escherichia coli K-12 MG1655; test: Growth of K-12 MG1655 in varying concentrations of fumaric, itaconic, malic and succinic acid, Growth Profiler; type: cell-based
Method: Five colonies from wild-type K-12 MG1655 and 10 individual colonies deriving from each population were inoculated into 300 μL M9+1% glucose in 96 well deepwell plates and incubated in a 300 rpm plate shaker at 37° C. The next day, cells were diluted 10× in M9+1% glucose and 30 μL was transferred into clear-bottomed 96 well half-deepwell plates (with rectangular wells) containing M9+1% glucose and M9+1% glucose+52.78 g/L glutaric acid or 55.56 g/L adipic acid, such that the final concentration of glutaric acid or adipic acid was 47.5 g/L or 50 g/L, respectively. In addition, cryogenic glycerol stocks of the overnight culture were saved in a 96 well plate format. Half deepwell plates were incubated at 37° C. with 225 rpm shaking in a Growth Profiler (Enzyscreen), with optical scans of the plates taken at 15 minute intervals. Green pixel values integrated over a 1 mm diameter circular area in each well were converted to OD600 values using a previously determined calibration between OD600 and green pixel values.
Additionally, each evolved isolate was tested for cross-tolerance toward other dicarboxylic acids of interest. […] All diacids tested were either the neutral sodium salts, or the free diacid was neutralized with sodium hydroxide to pH 7.0 for testing.

SMILES: C=C(CC(=O)O)C(=O)O [itaconic acid]
- growth rate μ (mean) ([1]; strain ADIP1-1): 0.466 h⁻¹
- lag time tlag (mean) ([1]; strain ADIP1-1): 8.3 h
- growth rate μ (mean) ([1]; strain ADIP1-9): 0.434 h⁻¹
- lag time tlag (mean) ([1]; strain ADIP1-9): 8.7 h
- growth rate μ (mean) ([1]; strain ADIP2-5): 0.440 h⁻¹
- lag time tlag (mean) ([1]; strain ADIP2-5): 8.3 h
- growth rate μ (mean) ([1]; strain ADIP2-6): 0.470 h⁻¹
- lag time tlag (mean) ([1]; strain ADIP2-6): 8.2 h
- growth rate μ (mean) ([1]; strain ADIP2-10): 0.438 h⁻¹
- lag time tlag (mean) ([1]; strain ADIP2-10): 8.3 h
- growth rate μ (mean) ([1]; strain ADIP3-2): 0.459 h⁻¹
- lag time tlag (mean) ([1]; strain ADIP3-2): 7.9 h
- growth rate μ (mean) ([1]; strain ADIP3-4): 0.451 h⁻¹
- lag time tlag (mean) ([1]; strain ADIP3-4): 8.4 h
- growth rate μ (mean) ([1]; strain ADIP3-8): 0.433 h⁻¹
- lag time tlag (mean) ([1]; strain ADIP3-8): 8.5 h
- growth rate μ (mean) ([1]; strain ADIP4-1): 0.339 h⁻¹
- lag time tlag (mean) ([1]; strain ADIP4-1): 11.2 h
- growth rate μ (mean) ([1]; strain ADIP4-8): 0.326 h⁻¹
- lag time tlag (mean) ([1]; strain ADIP4-8): 10.4 h
- growth rate μ (mean) ([1]; strain ADIP5-2): 0.354 h⁻¹
- lag time tlag (mean) ([1]; strain ADIP5-2): 9.4 h
- growth rate μ (mean) ([1]; strain ADIP5-6): 0.527 h⁻¹
- lag time tlag (mean) ([1]; strain ADIP5-6): 7.2 h
- growth rate μ (mean) ([1]; strain ADIP6-3): 0.327 h⁻¹
- lag time tlag (mean) ([1]; strain ADIP6-3): 9.9 h
- growth rate μ (mean) ([1]; strain ADIP6-9): 0.337 h⁻¹
- lag time tlag (mean) ([1]; strain ADIP6-9): 10.3 h
- growth rate μ (mean) ([1]; strain ADIP6-10): 0.343 h⁻¹
- lag time tlag (mean) ([1]; strain ADIP6-10): 9.1 h
- growth rate μ (mean) ([1]; strain ADIP7-2): 0.342 h⁻¹
- lag time tlag (mean) ([1]; strain ADIP7-2): 7.9 h
- growth rate μ (mean) ([1]; strain ADIP7-5): 0.402 h⁻¹
- lag time tlag (mean) ([1]; strain ADIP7-5): 8.6 h
- growth rate μ (mean) ([1]; strain ADIP8-3): 0.308 h⁻¹
- lag time tlag (mean) ([1]; strain ADIP8-3): 11.7 h
- growth rate μ (mean) ([1]; strain ADIP8-7): 0.235 h⁻¹
- lag time tlag (mean) ([1]; strain ADIP8-7): 12.5 h
- growth rate μ (mean) ([1]; strain ADIP8-10): 0.290 h⁻¹
- lag time tlag (mean) ([1]; strain ADIP8-10): 11.3 h
- growth rate μ (mean) ([1]; strain GLUT1-3): 0.454 h⁻¹
- lag time tlag (mean) ([1]; strain GLUT1-3): 10.2 h
- growth rate μ (mean) ([1]; strain GLUT1-9): 0.446 h⁻¹
- lag time tlag (mean) ([1]; strain GLUT1-9): 10.4 h
- growth rate μ (mean) ([1]; strain GLUT1-10): 0.446 h⁻¹
- lag time tlag (mean) ([1]; strain GLUT1-10): 18.1 h
- growth rate μ (mean) ([1]; strain GLUT2-1): 0.385 h⁻¹
- lag time tlag (mean) ([1]; strain GLUT2-1): 10.8 h
- growth rate μ (mean) ([1]; strain GLUT2-9): 0.415 h⁻¹
- lag time tlag (mean) ([1]; strain GLUT2-9): 9.0 h
- growth rate μ (mean) ([1]; strain GLUT2-10): 0.494 h⁻¹
- lag time tlag (mean) ([1]; strain GLUT2-10): 8.8 h
- growth rate μ (mean) ([1]; strain GLUT3-5): 0.310 h⁻¹
- lag time tlag (mean) ([1]; strain GLUT3-5): 12.0 h
- growth rate μ (mean) ([1]; strain GLUT3-7): 0.326 h⁻¹
- lag time tlag (mean) ([1]; strain GLUT3-7): 11.7 h
- growth rate μ (mean) ([1]; strain GLUT3-9): 0.257 h⁻¹
- lag time tlag (mean) ([1]; strain GLUT3-9): 14.5 h
- growth rate μ (mean) ([1]; strain GLUT4-1): 0.414 h⁻¹
- lag time tlag (mean) ([1]; strain GLUT4-1): 11.7 h
- growth rate μ (mean) ([1]; strain GLUT4-4): 0.339 h⁻¹
- lag time tlag (mean) ([1]; strain GLUT4-4): 13.4 h
- growth rate μ (mean) ([1]; strain GLUT4-10): 0.328 h⁻¹
- lag time tlag (mean) ([1]; strain GLUT4-10): 13.5 h
- growth rate μ (mean) ([1]; strain GLUT5-4): 0.398 h⁻¹
- lag time tlag (mean) ([1]; strain GLUT5-4): 15.2 h
- growth rate μ (mean) ([1]; strain GLUT5-5): 0.368 h⁻¹
- lag time tlag (mean) ([1]; strain GLUT5-5): 11.4 h
- growth rate μ (mean) ([1]; strain GLUT5-9): 0.438 h⁻¹
- lag time tlag (mean) ([1]; strain GLUT5-9): 22.5 h
- growth rate μ (mean) ([1]; strain GLUT6-4): 0.360 h⁻¹
- lag time tlag (mean) ([1]; strain GLUT6-4): 11.3 h
- growth rate μ (mean) ([1]; strain GLUT6-5): 0.420 h⁻¹
- lag time tlag (mean) ([1]; strain GLUT6-5): 10.6 h
- growth rate μ (mean) ([1]; strain GLUT6-10): 0.502 h⁻¹
- lag time tlag (mean) ([1]; strain GLUT6-10): 10.5 h
- growth rate μ (mean) ([1]; strain GLUT7-2): 0.441 h⁻¹
- lag time tlag (mean) ([1]; strain GLUT7-2): 10.6 h
- growth rate μ (mean) ([1]; strain GLUT7-6): 0.293 h⁻¹
- lag time tlag (mean) ([1]; strain GLUT7-6): 13.7 h
- growth rate μ (mean) ([1]; strain GLUT7-7): 0.239 h⁻¹
- lag time tlag (mean) ([1]; strain GLUT7-7): 8.5 h
- growth rate μ (mean) ([1]; strain GLUT8-5): 0.372 h⁻¹
- lag time tlag (mean) ([1]; strain GLUT8-5): 17.3 h
- growth rate μ (mean) ([1]; strain GLUT8-6): 0.236 h⁻¹
- lag time tlag (mean) ([1]; strain GLUT8-6): 10.3 h
- growth rate μ (mean) ([1]; strain GLUT8-9): 0.224 h⁻¹
- lag time tlag (mean) ([1]; strain GLUT8-9): 12.0 h
- growth rate μ (mean) ([1]; strain MG1655 (Table 26)): 0.248 h⁻¹
- lag time tlag (mean) ([1]; strain MG1655 (Table 26)): 13.4 h
- growth rate μ (mean) ([1]; strain MG1655 (Table 27)): 0.257 h⁻¹
- lag time tlag (mean) ([1]; strain MG1655 (Table 27)): 13.0 h
- μ (mean) ([2]; growth rate of K-12 MG1655, 10 g/L diacid (sodium salt)): 0.703 h^1
- μ (mean) ([2]; growth rate of K-12 MG1655, 20 g/L diacid (sodium salt)): 0.603 h^1
- μ (mean) ([2]; growth rate of K-12 MG1655, 30 g/L diacid (sodium salt)): 0.520 h^1
- μ (mean) ([2]; growth rate of K-12 MG1655, 40 g/L diacid (sodium salt)): 0.320 h^1
- μ (mean) ([2]; growth rate of K-12 MG1655, 50 g/L diacid (sodium salt)): 0.117 h^1
- tlag (mean) ([2]; lag time of K-12 MG1655, 10 g/L diacid (sodium salt)): 5.8 h
- tlag (mean) ([2]; lag time of K-12 MG1655, 20 g/L diacid (sodium salt)): 7.0 h
- tlag (mean) ([2]; lag time of K-12 MG1655, 30 g/L diacid (sodium salt)): 9.4 h
- tlag (mean) ([2]; lag time of K-12 MG1655, 40 g/L diacid (sodium salt)): 14.1 h
- tlag (mean) ([2]; lag time of K-12 MG1655, 50 g/L diacid (sodium salt)): 29.9 h
